The values below come from PMC12056086 (Nature Communications, 2025).

Each structure is given as a SMILES string.

For assay [1], the target named is human dopamine transporter (hDAT) (Homo sapiens, UniProt Q01959, K384A).
The target in assay [2] is human dopamine transporter (hDAT) (Homo sapiens, UniProt Q01959, K92A).
In assay [3] the target is human dopamine transporter (hDAT) (Homo sapiens, UniProt Q01959). The assay can be described thus: cell-based. To be noted: read-out: single-molecule AFM force spectroscopy on live cells.
Chain of human dopamine transporter (hDAT) (Homo sapiens, UniProt Q01959) (Q01959 whole entry): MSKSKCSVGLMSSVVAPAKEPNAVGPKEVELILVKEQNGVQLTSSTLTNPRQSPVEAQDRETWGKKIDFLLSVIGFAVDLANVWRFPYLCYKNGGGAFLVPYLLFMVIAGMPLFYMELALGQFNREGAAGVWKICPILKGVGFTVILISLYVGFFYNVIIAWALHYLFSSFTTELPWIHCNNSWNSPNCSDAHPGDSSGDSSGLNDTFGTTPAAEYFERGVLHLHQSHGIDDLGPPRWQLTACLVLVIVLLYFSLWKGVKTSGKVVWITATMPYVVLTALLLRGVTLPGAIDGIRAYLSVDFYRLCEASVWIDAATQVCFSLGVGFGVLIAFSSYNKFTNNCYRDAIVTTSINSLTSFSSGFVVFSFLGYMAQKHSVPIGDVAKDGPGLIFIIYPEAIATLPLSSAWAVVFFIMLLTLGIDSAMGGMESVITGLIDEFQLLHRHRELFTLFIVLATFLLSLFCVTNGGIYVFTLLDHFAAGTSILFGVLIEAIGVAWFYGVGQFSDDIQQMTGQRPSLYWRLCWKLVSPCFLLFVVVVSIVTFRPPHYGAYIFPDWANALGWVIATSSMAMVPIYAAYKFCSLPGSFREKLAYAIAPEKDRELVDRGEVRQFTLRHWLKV
Assay [4] concerns the target human dopamine transporter (hDAT) (Homo sapiens, UniProt Q01959, G386H).
In assay [5] the target is human dopamine transporter (hDAT) (Homo sapiens, UniProt Q01959, V152I).
Chain of human dopamine transporter (hDAT) (Homo sapiens, UniProt Q01959, V152I) (Q01959 whole entry V152I): as the sequence (Q01959 whole entry) above, with V152I counted along it

Chain of human dopamine transporter (hDAT) (Homo sapiens, UniProt Q01959, K384A) (Q01959 whole entry K384A): as the sequence (Q01959 whole entry) above, with K384A counted along it
Chain of human dopamine transporter (hDAT) (Homo sapiens, UniProt Q01959, G386H) (Q01959 whole entry G386H): as the sequence (Q01959 whole entry) above, with G386H counted along it
Chain of human dopamine transporter (hDAT) (Homo sapiens, UniProt Q01959, K92A) (Q01959 whole entry K92A): as the sequence (Q01959 whole entry) above, with K92A counted along it

For the molecule `NCCc1ccc(O)c(O)c1` [dopamine], the “single-molecule AFM force spectroscopy on live cells” value was “both K92A and K384A diminished the population of weaker unbinding events, indicating that both lysines are involved in the S2 site” in assay [1]; “both K92A and K384A diminished the population of weaker unbinding events, indicating that both lysines are involved in the S2 site” in assay [2]; “dopamine was still able to bind to the S2 site of DAT-G386H, albeit with lower binding strength” in assay [4]; “(V152I) also reduced the population of stronger binding events (d) while the overall binding activity is preserved” in assay [5]. Further, in assay [3], the koff came out at 0.11 ± 0.03 s⁻¹.
